The results in this text go back to patent US20210078958A1, “QUINAZOLINE DERIVATIVE AND USE THEREOF” (MEDSHINE DISCOVERY INC., priority 2017, published 2021).

One data set deals with HER4 (ErbB4) (Homo sapiens, UniProt Q15303). Description: in vitro enzyme activity, HER4 (ErbB4). It is filed as biochemical. As to conditions: human ErbB4, [γ-33P]ATP, poly(Glu, Tyr) substrate. As to the method: (§1) The purpose of this assay is to detect the in vitro inhibitory activity of compounds on HER1 (ErbB1), HER2 (ErbB2), and HER4 (ErbB4). The enzymes used in this assay are human ErbB1, ErbB2 and ErbB4. Eurofins Pharma Discovery Service provided the method for activity detection.
(§2) Steps and Method of the Assay (96-Well Plate):
(§3) A buffer solution of the test compounds in a dilution of 5-fold (5 μL), polypeptide substrate poly(Glu, Tyr) (4:1) (2.5 μL), ErbB (4-20 ng, 2.5 μL), MnCl2 (50 mM, 1.25 μL), dH2O (3.75 μL), and [γ-^33P]ATP (10 μL) were added, and incubated at 30° C. for 10 minutes. The reaction was terminated by adding 3% phosphoric acid. 10 μL of the sample was taken and transferred to Filtermate A. The filter disc was washed 3 times with 75 mM phosphoric acid and once with methanol. The filter disc was transferred to a sealed plastic bag and the scintillation mixture (4 mL) was added. The intensity of the emitted photon was detected by a scintillation luminescence counter. The CPM (times/min) of the enzyme sample was compared with the CPM of the internal control sample. The level of photon intensity reflected the degree of the tyrosine kinase activity.

In a further data set the test system is NCI-N87 cell. The experiment in a line: inhibitory activity on cell proliferation (Cell-Titer-Glo), NCI-N87. The format is cell-based. Particulars: Homo sapiens. From the text:
Purpose of the assay: to detect the inhibitory activity of the test compounds on cell proliferation.
Principle of the assay: the luciferase in a Cell-Titer-Glo reagent produces oxidized luciferin with luciferin, oxygen and ATP as reaction substrates, and releases energy in the form of light. Since the luciferase reaction requires ATP, the total amount of light generated by the reaction is proportional to the total amount of ATP that reflects cell viability.
Cell Titer-Glo cell viability assay kit with luminescence (Promega #G7573)
According to the schematic diagram of the cell seed plate, cells were seeded in a 384- or 96-well plate at a density of 1000 cells per well and 25 μL per well, and 25 μL of PBS was added to the wells near edge of the place where no cells were seeded.
(1) The stock solution of the compounds has a concentration of 10 mM, and the compounds were diluted with DMSO to an initial concentration of 4 mM. The compounds were added to the plate with stock solution of compounds, 9 μL per well.
(2) The compounds were diluted with an ECHO liquid workstation, where 125 nL of compounds were added to each well of the cell plate, 125 nL of DMSO was added to each of the cell well in columns 2 and 23, and 125 nL of DMSO was added to each PBS well in columns 1 and 24.
2.3 After addition of the compounds, the cell plate was centrifuged at 1000 rpm for 1 min, and then placed in a 37° C., 5% CO2 incubator for incubation for 3 days.
The cell plate was taken out from the incubator and equilibrated at room temperature for 30 minutes. 25 μL of Cell-Titer-Glo reagent was added to each well, shaken for one minute to allow well mixed, and centrifuged at 1000 rpm for 1 minute. After 10 minutes, the plate was read on PerkinElmer Envision, and the […] reading time was set to 0.2 second.

The next data set addresses HER1 (ErbB1) (Homo sapiens, UniProt P00533). The experiment in a line: in vitro enzyme activity, HER1 (ErbB1). The format is biochemical. Particulars: human ErbB1, [γ-33P]ATP, poly(Glu, Tyr) substrate. On the procedure:
as §1, §2, §3

The target in another data set is HER2 (ErbB2) (Homo sapiens, UniProt P04626). Description: in vitro enzyme activity, HER2 (ErbB2). The format is biochemical. As to conditions: human ErbB2, [γ-33P]ATP, poly(Glu, Tyr) substrate. On the procedure:
as §1, §2, §3

The test system of data set [1] is subcutaneous xenograft tumor of human gastric cancer NCI-N87 cells. It is filed as in vivo. Particulars: for Tumor volume (mm3) (Day 21) / T/C (%) / TGI (%): 3 mg/kg, NCI-N87 xenograft; for Tumor volume (mm3) (Day 21): Mean ± SEM; for T/C (%) / TGI (%): day 21; for body weight of test animals (reference index for drug toxicity): mouse, in vivo. On the procedure: Purpose of the assay: to evaluate the in vivo efficacy of compounds to be tested on subcutaneous xenograft tumor of human gastric cancer NCI-N87 cells in a BALB/c nude mouse model.
Animals of the assay: female BALB/c nude mice, 6-8 weeks old, weighted 18-22 grams; supplier: shanghai sippr bk laboratory animals Ltd.
Human gastric cancer NCI-N87 cells were cultured in monolayer in vitro. The culture conditions were RPMI-1640 medium plus 10% fetal bovine serum, 100 U/mL penicillin, 100 μg/mL streptomycin and 2 mM glutamine, 37° C., 5% CO2. The passaging was performed by the conventional digestion with trypsin-EDTA twice a week. When the cell saturation was 80%-90%, the cells were collected, counted and inoculated.
0.2 mL (10×10^6 cells) of NCI-N87 cells were inoculated subcutaneously on the right back of each nude mouse (PBS+Matrigel, 1:1). When the average tumor volume reached 145 mm^3, administration to each group was started.
The test compounds were formulated into a 0.3 mg/mL clear solution in the solvents of 10% NMP (N-methylpyrrolidone)+10% ethylene glycol stearate+80% water.
The assay index is to investigate whether tumor growth is inhibited, delayed or cured. Tumor diameter was measured twice a week with a vernier caliper. The calculation formula of tumor volume is: V=0.5a×b^2, wherein a and b represent the long and short diameters of tumor, respectively.
The antitumor efficacy of the compounds were evaluated by TGI (%) or relative tumor proliferation rate T/C (%). TGI (%) reflects the tumor growth inhibition rate. TGI (%) is calculated as follows: TGI (%)=[1−(average tumor volume at the end of administration for a certain treatment group−average tumor volume at the beginning of administration for this treatment group)/(average tumor volume at the end of treatment for a solvent control group−average tumor volume at the beginning of administration for this solvent control group)][…].
Relative tumor proliferation rate T/C (%): the calculation formula is as follows: T/C %=TRTV/CRTV (TRTV: RTV for the treatment group; CRTV: RTV for the negative control group). Relative tumor volume (RTV) is calculated based on tumor measurement results. The calculation formula is RTV=Vt/V0, wherein V0 is the average tumor volume measured at the beginning of administration (i.e., d0) to each group, Vt is the average tumor volume at a certain measurement, and the data for TRTV and CRTV were taken on the same day.
The tumor weight was measured after the assay is over and the T/C weight percentage was calculated. T weight and C weight represent the tumor weight of the administration group and the vehicle control group, respectively.
Statistical analysis included the mean and standard error (SEM) of tumor volume at each time point in each group. […] The comparison between two groups was analyzed by T-test, and the comparison among three or more groups was analyzed by one-way ANOVA. […] All data analysis was carried out with SPSS 17.0. p<0.05 was considered a significant difference.

Where [2] appears, read: NCI-N87, footnote d: initial dilution concentration of compounds is 10 μM.
The mark [3] stands for this setting: NCI-N87, 72 h, incubation for 3 days, Cell-Titer-Glo.

A value given as a limit tells only on which side of the number the result lay.

Chain of HER4 (ErbB4) (Q15303 26-1308): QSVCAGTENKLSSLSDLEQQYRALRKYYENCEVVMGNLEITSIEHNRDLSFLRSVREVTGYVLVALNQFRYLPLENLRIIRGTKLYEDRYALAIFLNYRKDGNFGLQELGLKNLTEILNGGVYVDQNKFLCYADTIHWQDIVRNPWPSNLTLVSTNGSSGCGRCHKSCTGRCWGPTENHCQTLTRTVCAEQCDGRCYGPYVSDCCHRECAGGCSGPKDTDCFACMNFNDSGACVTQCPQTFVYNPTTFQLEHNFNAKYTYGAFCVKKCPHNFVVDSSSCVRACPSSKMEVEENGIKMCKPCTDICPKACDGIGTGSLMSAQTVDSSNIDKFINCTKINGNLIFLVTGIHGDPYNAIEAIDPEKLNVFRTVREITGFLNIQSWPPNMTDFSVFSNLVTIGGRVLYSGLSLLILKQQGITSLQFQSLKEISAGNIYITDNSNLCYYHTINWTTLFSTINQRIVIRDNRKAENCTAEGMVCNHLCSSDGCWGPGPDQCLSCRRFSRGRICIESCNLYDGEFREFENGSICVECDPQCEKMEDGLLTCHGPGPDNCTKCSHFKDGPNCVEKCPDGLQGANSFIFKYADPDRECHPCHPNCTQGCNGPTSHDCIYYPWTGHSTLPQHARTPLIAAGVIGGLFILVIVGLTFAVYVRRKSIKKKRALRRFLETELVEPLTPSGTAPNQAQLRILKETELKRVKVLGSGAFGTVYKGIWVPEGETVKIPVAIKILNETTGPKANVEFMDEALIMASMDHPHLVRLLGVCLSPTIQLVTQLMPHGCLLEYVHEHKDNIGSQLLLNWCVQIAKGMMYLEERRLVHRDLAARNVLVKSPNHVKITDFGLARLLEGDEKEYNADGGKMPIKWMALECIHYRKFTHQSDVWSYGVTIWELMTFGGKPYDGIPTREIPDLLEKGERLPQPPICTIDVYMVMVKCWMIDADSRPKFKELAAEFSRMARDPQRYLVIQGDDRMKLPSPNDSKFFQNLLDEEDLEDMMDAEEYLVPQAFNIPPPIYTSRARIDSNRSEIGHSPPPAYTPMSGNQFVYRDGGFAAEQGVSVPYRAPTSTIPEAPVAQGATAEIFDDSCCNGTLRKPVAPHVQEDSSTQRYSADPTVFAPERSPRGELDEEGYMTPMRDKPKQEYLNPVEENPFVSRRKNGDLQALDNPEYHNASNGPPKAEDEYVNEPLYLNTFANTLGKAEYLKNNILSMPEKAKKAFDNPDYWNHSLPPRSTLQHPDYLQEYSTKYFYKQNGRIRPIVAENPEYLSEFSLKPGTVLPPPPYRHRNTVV
Chain of HER1 (ErbB1) (P00533 25-1210): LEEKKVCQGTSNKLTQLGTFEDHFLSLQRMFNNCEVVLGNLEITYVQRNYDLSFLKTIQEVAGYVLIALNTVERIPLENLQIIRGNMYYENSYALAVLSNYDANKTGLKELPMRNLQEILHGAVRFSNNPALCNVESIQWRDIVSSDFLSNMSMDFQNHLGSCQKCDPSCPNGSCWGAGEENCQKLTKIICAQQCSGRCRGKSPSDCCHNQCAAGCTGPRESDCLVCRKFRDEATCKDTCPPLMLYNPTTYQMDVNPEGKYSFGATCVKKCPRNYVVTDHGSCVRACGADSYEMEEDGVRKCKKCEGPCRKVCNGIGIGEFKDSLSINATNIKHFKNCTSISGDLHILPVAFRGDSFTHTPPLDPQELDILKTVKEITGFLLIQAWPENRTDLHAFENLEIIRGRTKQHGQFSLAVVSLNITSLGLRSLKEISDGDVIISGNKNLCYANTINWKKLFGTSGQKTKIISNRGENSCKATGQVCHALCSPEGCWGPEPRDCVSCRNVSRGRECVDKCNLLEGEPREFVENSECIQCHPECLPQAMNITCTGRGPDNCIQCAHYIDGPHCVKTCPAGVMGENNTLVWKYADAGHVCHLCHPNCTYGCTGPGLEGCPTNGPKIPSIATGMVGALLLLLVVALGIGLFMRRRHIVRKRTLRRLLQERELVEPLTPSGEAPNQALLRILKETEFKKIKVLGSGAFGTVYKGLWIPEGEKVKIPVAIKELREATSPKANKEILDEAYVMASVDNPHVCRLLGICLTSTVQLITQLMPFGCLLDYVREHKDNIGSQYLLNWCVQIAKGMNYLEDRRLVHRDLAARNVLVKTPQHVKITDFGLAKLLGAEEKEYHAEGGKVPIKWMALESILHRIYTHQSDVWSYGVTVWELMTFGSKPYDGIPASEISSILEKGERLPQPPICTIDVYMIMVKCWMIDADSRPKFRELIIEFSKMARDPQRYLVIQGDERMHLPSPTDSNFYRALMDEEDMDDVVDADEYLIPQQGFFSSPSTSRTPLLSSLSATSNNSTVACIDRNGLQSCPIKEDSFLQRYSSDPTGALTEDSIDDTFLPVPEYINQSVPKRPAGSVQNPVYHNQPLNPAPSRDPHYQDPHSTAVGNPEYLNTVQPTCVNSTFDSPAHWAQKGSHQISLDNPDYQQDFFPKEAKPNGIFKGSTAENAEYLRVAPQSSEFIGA
Chain of HER2 (ErbB2) (P04626 23-1255): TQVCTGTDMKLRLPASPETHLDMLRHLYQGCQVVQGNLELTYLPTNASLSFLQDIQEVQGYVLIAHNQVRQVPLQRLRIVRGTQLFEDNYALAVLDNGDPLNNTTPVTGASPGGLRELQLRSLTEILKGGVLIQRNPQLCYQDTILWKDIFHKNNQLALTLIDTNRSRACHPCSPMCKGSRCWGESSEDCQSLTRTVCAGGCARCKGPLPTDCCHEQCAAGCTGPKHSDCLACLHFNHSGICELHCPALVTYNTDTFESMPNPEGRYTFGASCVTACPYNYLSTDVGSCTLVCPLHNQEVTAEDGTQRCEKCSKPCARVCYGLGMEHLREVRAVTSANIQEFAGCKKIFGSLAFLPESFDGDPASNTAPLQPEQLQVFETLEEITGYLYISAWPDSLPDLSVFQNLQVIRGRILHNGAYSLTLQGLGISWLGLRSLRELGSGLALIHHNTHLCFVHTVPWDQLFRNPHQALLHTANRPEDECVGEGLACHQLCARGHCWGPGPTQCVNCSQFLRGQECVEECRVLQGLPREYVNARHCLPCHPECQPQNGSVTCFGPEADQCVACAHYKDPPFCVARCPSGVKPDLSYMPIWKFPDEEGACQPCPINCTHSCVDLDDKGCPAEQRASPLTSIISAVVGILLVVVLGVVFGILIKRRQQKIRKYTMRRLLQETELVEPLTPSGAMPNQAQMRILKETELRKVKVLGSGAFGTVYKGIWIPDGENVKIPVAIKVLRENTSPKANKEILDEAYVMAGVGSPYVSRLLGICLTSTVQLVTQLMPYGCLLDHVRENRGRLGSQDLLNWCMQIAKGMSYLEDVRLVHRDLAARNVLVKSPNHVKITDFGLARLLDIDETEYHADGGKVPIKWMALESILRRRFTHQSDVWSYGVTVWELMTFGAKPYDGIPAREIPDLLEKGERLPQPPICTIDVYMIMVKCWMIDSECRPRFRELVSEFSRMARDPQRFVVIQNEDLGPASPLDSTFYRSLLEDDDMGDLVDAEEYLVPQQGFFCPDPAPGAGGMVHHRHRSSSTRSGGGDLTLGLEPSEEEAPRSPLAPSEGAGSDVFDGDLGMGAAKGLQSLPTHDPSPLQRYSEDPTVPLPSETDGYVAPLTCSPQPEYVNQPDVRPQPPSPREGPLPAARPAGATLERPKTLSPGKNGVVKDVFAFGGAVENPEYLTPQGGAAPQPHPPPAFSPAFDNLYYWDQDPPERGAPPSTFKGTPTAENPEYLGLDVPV

What is called IC50 is the concentration needed to halve the response being measured. The low end stands for greater potency, the high end for weaker potency. Regarding `C=CC(=O)N1C[C@H]2C[C@@H](C1)[C@H]2Oc1cc2c(Nc3ccc(Cl)c(Cl)c3F)ncnc2cc1OC` [Example 1], the IC50 against HER4 (ErbB4) was 10 nM; in the data set on NCI-N87 cell (setting [2]), < 1.5 nM; against HER1 (ErbB1) it was 2 nM; on HER2 (ErbB2), 3 nM. For the same molecule, the “Tumor volume (mm3) (Day 21)” value in data set [1] is on record as 122 ± 11 mm3. Besides, the “T/C (%)” value in data set [1] came out at 16.62%. Besides, in data set [1], the “TGI (%)” value is listed as 103.98%. In addition, the “body weight of test animals (reference index for drug toxicity)” value in data set [1] is “significantly better than that of the control compound Poziotinib”.
Take `C=CC(=O)N1C[C@H]2C[C@@H](C1)[C@H]2Oc1cc2c(Nc3ccc(F)c(Cl)c3)ncnc2cc1OC` [Example 3]: the IC50 at HER4 (ErbB4) turned out to be 17 nM; against HER1 (ErbB1) it was 2 nM; against HER2 (ErbB2) it was 5 nM.
On to `C=CC(=O)N1C[C@H]2C[C@@H](C1)[C@H]2Oc1cc2c(Nc3ccc(C#N)c(Cl)c3)ncnc2cc1OC` [Example 4], for which the half-inhibitory concentration (IC50) is 13 nM against HER4 (ErbB4), 2 nM against HER1 (ErbB1) and 3 nM against HER2 (ErbB2).
In the same order, the values of `C=CC(=O)N1C[C@H]2C[C@@H](C1)[C@H]2Oc1cc2c(Nc3cccc(Cl)c3F)ncnc2cc1OC` [Example 5] are 157 nM, 9 nM and 24 nM.
In the same order, the values of `C=CC(=O)N1C[C@H]2C[C@@H](C1)[C@H]2Oc1cc2c(Nc3ccc(OC(F)(F)F)c(Cl)c3)ncnc2cc1OC` [Example 6] are 17 nM, 2 nM and 4 nM.
For the molecule `C=CC(=O)N1[C@@H]2CC[C@H]1C[C@@H](Oc1cc3c(Nc4ccc(Cl)c(Cl)c4F)ncnc3cc1OC)C2` [Example 7], the concentration for half-maximal inhibition (IC50) was 61 nM on HER4 (ErbB4), 1.5 nM in the data set with NCI-N87 cell (setting [2]), 40 nM against HER1 (ErbB1) and 69 nM at HER2 (ErbB2). Moreover, in data set [1], the “Tumor volume (mm3) (Day 21)” value stood at 188 ± 9 mm3. In addition, in data set [1], the “T/C (%)” value is on record as 26.10%. The “TGI (%)” value in data set [1] turned out to be 92.63%. Further, the “body weight of test animals (reference index for drug toxicity)” value in data set [1] is “significantly better than that of the control compound Poziotinib”.
With `C=CC(=O)N1[C@@H]2CC[C@H]1C[C@H](Oc1cc3c(Nc4ccc(Cl)c(Cl)c4F)ncnc3cc1OCC(F)(F)F)C2` [Example 20], the IC50 came out at 10 nM on HER4 (ErbB4), 0.6 nM with NCI-N87 cell (setting [3]), 18 nM against HER1 (ErbB1) and 11 nM at HER2 (ErbB2).
Turning to `C=CC(=O)N1[C@@H]2CC[C@H]1C[C@H](Oc1cc3c(Nc4ccc(Cl)c(Cl)c4F)ncnc3cc1OCCOC)C2` [Example 22], the IC50 was determined as 3 nM at HER4 (ErbB4), 12 nM against HER1 (ErbB1) and 7 nM on HER2 (ErbB2).
Take `C=CC(=O)N1[C@@H]2CC[C@H]1C[C@H](Oc1cc3c(Nc4ccc(Cl)c(Cl)c4F)ncnc3cc1OCC(=O)NC)C2` [Example 23]: the IC50 against HER4 (ErbB4) was found to be 2 nM; in the data set on NCI-N87 cell (setting [3]) it was 0.14 nM; against HER1 (ErbB1) it was 8 nM; on HER2 (ErbB2), 4 nM.
With `C=CC(=O)N1[C@@H]2CC[C@H]1C[C@H](Oc1cc3c(Nc4ccc(Cl)c(Cl)c4F)ncnc3cc1OCCCN1CCOCC1)C2` [Example 24], the IC50 on HER4 (ErbB4) was 3 nM; in the data set with NCI-N87 cell (setting [3]) it was 0.17 nM; against HER1 (ErbB1), 10 nM; at HER2 (ErbB2), 6 nM.
The matching figures for `C=CC(=O)N1[C@@H]2CC[C@H]1C[C@H](Oc1cc3c(Nc4ccc(Cl)c(Cl)c4F)ncnc3cc1OCCO)C2` [Example 25]: 6 nM, 0.19 nM, 6 nM and 3 nM.
In the same order, the values of `C=CC(=O)N1[C@@H]2CC[C@H]1C[C@H](Oc1cc3c(Nc4ccc(Cl)c(Cl)c4F)ncnc3cc1O[C@H]1CCOC1)C2` [Example 26] are 4 nM, 0.24 nM, 8 nM and 5 nM.
The matching figures for `C=CC(=O)N1[C@@H]2CC[C@H]1C[C@H](Oc1cc3c(Nc4ccc(Cl)c(Cl)c4F)ncnc3cc1O[C@@H]1CCOC1)C2` [Example 27]: 3 nM, 0.31 nM, 16 nM and 5 nM.
`C=CC(=O)N1[C@@H]2CC[C@H]1C[C@H](Oc1cc3c(Nc4ccc(Cl)c(Cl)c4)ncnc3cc1OC)C2` [Example 32]: the IC50 stood at 3 nM against HER4 (ErbB4), 0.29 nM with NCI-N87 cell (setting [3]), 15 nM against HER1 (ErbB1) and 5 nM at HER2 (ErbB2).
In the case of `C=CC(=O)N1[C@@H]2CC[C@H]1C[C@H](Oc1cc3c(Nc4cccc(Cl)c4F)ncnc3cc1OC)C2` [Example 33], the IC50 was found to be 3 nM against HER4 (ErbB4), 7 nM against HER1 (ErbB1) and 6 nM against HER2 (ErbB2).
Regarding `C=CC(=O)N1[C@@H]2CC[C@H]1C[C@H](Oc1cc3c(Nc4ccc(F)c(Cl)c4)ncnc3cc1OC)C2` [Example 40], the IC50 against HER4 (ErbB4) came to 2 nM; with NCI-N87 cell (setting [3]), 0.34 nM; against HER1 (ErbB1) it was 11 nM; against HER2 (ErbB2), 5 nM.
In turn, `C=CC(=O)N1[C@@H]2CC[C@H]1C[C@H](Oc1cc3c(Nc4ccc(Cl)c(Cl)c4F)ncnc3cc1OC1COC1)C2` [Example 42] displayed an IC50 in the data set on NCI-N87 cell (setting [3]) of 0.92 nM.
Take `C=CC(=O)N1[C@@H]2CC[C@H]1C[C@H](Oc1cc3c(Nc4ccc(Cl)c(Cl)c4F)ncnc3cc1OCCCO)C2` [Example 44]: the concentration for half-maximal inhibition (IC50) is 3 nM against HER4 (ErbB4), 0.33 nM in the data set with NCI-N87 cell (setting [3]), 5 nM on HER1 (ErbB1) and 4 nM against HER2 (ErbB2).
In the same order, the values of `C=CC(=O)N1[C@@H]2CC[C@H]1C[C@H](Oc1cc3c(Nc4ccc(Cl)c(Cl)c4F)ncnc3cc1OCCC(C)(C)O)C2` [Example 45] are 10 nM, 0.69 nM, 8 nM and 7 nM.
